Assay results taken from publication PMC11450120, “One-pot synthesis, characterization and antiviral properties of new benzenesulfonamide-based spirothiazolidinones” (Molecular Diversity, 2024).
Like-named read-outs stand apart in the source and are kept apart here.

How the values were obtained:
[1] = system: influenza B virus (B/Ned/537/05); experiment: Influenza virus CPE reduction assay in MDCK cells, influenza B; assay type: cell-based; details: read-out: Antiviral EC50 Influenza B Microscopy
[2] = system: Madin-Darby canine kidney (MDCK) cells; details: for cytotoxicity at the highest concentration tested: at 100 μM
[3] = system: influenza A/H3N2 (A/HK/7/87) virus; experiment: Influenza virus CPE reduction assay in MDCK cells, A/H3N2; assay type: cell-based
[4] = system: influenza A/H1N1 (A/Virginia/ATCC3/2009) virus; experiment: Influenza virus CPE reduction assay in MDCK cells, A/H1N1; assay type: cell-based
[5] = in vitro; details: dog
[6] = Influenza B virus, 96 h, CPE by microscopic scoring, 4 days at 35 °C
[7] = Influenza A virus, H3N2, 96 h, CPE by microscopic scoring, 4 days at 35 °C, read-out: Antiviral EC50 Influenza A/H3N2 Microscopy
[8] = Influenza A virus, H3N2, 96 h, MTS cell viability assay, 4 days at 35 °C, read-out: Antiviral EC50 Influenza A/H3N2 MTS
[9] = Influenza A virus, 96 h, CPE by microscopic scoring, 4 days at 35 °C, read-out: Antiviral EC50 Influenza A/H1N1 Microscopy
[10] = Influenza A virus, 96 h, MTS cell viability assay, 4 days at 35 °C, read-out: Antiviral EC50 Influenza A/H1N1 MTS
[11] = Influenza A virus, read-out: EC50 against influenza A/H1N1 virus (range over microscopy and MTS)

With `COc1cc(S(N)(=O)=O)ccc1C(=O)NN1C(=O)C(C)SC12CCC(c1ccccc1)CC2` (stereo not drawn) [3 h, 2-Methoxy-N-(2-methyl-3-oxo-8-phenyl-1-thia-4-azaspiro[4.5]decan-4-yl)-4-sulfamoylbenzamide] the EC50 [1, 6] was over 100000 nM, the melting point was 290 to 292 °C and the “Cytotoxicity MCC (minimal cytotoxic concentration)” value (shortened to “Cytotoxicity MCC”) ([2]; dog) was 100 µM. It also gave an EC50 [3, 7] of over 100000 nM, an EC50 [3, 8] of over 100000 nM and an EC50 [4, 9] of over 100000 nM. The EC50 [4, 10] was over 100000 nM and the CC50 [5] was over 100 µM.
With `CC(=O)N[C@H]1[C@H]([C@H](O)[C@H](O)CO)OC(C(=O)O)=C[C@@H]1N=C(N)N` [Zanamivir, reference compound] the EC50 [1, 6] was under 800 nM, the “Cytotoxicity MCC” value ([2]; dog) was over 100 µM and the EC50 [3, 7] was under 800 nM. For the same molecule, the EC50 [3, 8] was under 800 nM, the EC50 [4, 9] was over 100000 nM and the EC50 [4, 10] was over 100000 nM. For the same molecule, the CC50 [5] was over 100 µM.
For `COc1cc(S(N)(=O)=O)ccc1C(=O)NN1C(=O)C(C)SC12CCCC(C)C2` (stereo not drawn) [Compound 3a, 2-Methoxy-N-(2,7-dimethyl-3-oxo-1-thia-4-azaspiro[4.5]decan-4-yl)-4-sulfamoylbenzamide], the EC50 [1, 6] was over 100000 nM, the melting point was 261 to 264 °C and the “Cytotoxicity MCC” value ([2]; dog) was over 100 µM. The EC50 [3, 7] was over 100000 nM, the EC50 [3, 8] was 64000 nM and the EC50 [4, 9] was over 100000 nM. The EC50 [4, 10] was 76000 nM and the CC50 [5] was over 100 µM.
Work on `NC(=O)c1ncn([C@@H]2O[C@H](CO)[C@@H](O)[C@H]2O)n1` [Ribavirin, reference compound] yielded an EC50 [1, 6] of 10000 nM, an EC50 [3, 7] of 40000 nM and an EC50 [3, 8] of 26000 nM. It also gave an EC50 [4, 9] of 45000 nM, an EC50 [4, 10] of 25000 nM and a CC50 [5] of over 100 µM.
In the case of `COc1cc(S(N)(=O)=O)ccc1C(=O)NN1C(=O)C(C)SC12CCC(NC(C)=O)CC2` (stereo not drawn) [Compound 3j, 2-Methoxy-N-(8-acetamido-2-methyl-3-oxo-1-thia-4-azaspiro[4.5]decan-4-yl)-4-sulfamoylbenzamide], the EC50 [1, 6] is reported as over 100000 nM, the “Cytotoxicity MCC” value ([2]; dog) is reported as over 100 µM and the EC50 [3, 7] is reported as over 100000 nM. For the same molecule, the EC50 [3, 8] was over 100000 nM, the EC50 [4, 9] was over 100000 nM and the EC50 [4, 10] was over 100000 nM. It also gave a CC50 [5] of over 100 µM.
With `CCC1CCC2(CC1)SC(C)C(=O)N2NC(=O)c1ccc(S(N)(=O)=O)cc1OC` (stereo not drawn) [Compound 3c, 2-Methoxy-N-(8-ethyl-2-methyl-3-oxo-1-thia-4-azaspiro[4.5]decan-4-yl)-4-sulfamoylbenzamide] the EC50 [1, 6] was over 100000 nM, the melting point was 270 to 272 °C and the “Cytotoxicity MCC” value ([2]; dog) was 100 µM. It also gave an EC50 [3, 7] of over 100000 nM, an EC50 [3, 8] of over 100000 nM and an EC50 [4, 9] of over 100000 nM. It also gave an EC50 [4, 10] of 80000 nM and a CC50 [5] of over 100 µM.
In the case of `COc1cc(S(N)(=O)=O)ccc1C(=O)NN1C(=O)C(C)SC12CCC(C(C)(C)C)CC2` (stereo not drawn) [Compound 3e, 2-Methoxy-N-(2-methyl-3-oxo-8-tert-butyl-1-thia-4-azaspiro[4.5]decan-4-yl)-4-sulfamoylbenzamide], the EC50 [1, 6] is reported as over 100000 nM, the melting point is reported as 301 to 304 °C and the “cytotoxicity at the highest concentration tested” value [2] is reported as “no cytotoxicity”. The “Cytotoxicity MCC” value ([2]; dog) was over 100 µM, the EC50 [3, 7] was over 100000 nM and the EC50 [3, 8] was 68000 nM. The “activity against influenza A/H1N1 virus (in words)” value [4] was “weak activity”, the EC50 [4, 9] was 45000 nM and the EC50 [4, 10] was 35000 nM. It also gave an EC50 [4, 11] of 35000 to 45000 nM and a CC50 [5] of over 100 µM.
In the case of `CCCC1CCC2(CC1)SC(C)C(=O)N2NC(=O)c1ccc(S(N)(=O)=O)cc1OC` (stereo not drawn) [Compound 3d, 2-Methoxy-N-(2-methyl-3-oxo-8-propyl-1-thia-4-azaspiro[4.5]decan-4-yl)-4-sulfamoylbenzamide], the EC50 [1, 6] is reported as over 100000 nM, the melting point is reported as 274 to 276 °C and the “cytotoxicity at the highest concentration tested” value [2] is reported as “no cytotoxicity”. For the same molecule, the “Cytotoxicity MCC” value ([2]; dog) was 100 µM, the EC50 [3, 7] was over 100000 nM and the EC50 [3, 8] was over 100000 nM. The “activity against influenza A/H1N1 virus (in words)” value [4] was “weak activity”, the EC50 [4, 9] was 45000 nM and the EC50 [4, 10] was 39000 nM. The EC50 [4, 11] was 35000 to 45000 nM and the CC50 [5] was over 100 µM.
With `CCC(C)(C)C1CCC2(CC1)SC(C)C(=O)N2NC(=O)c1ccc(S(N)(=O)=O)cc1OC` (stereo not drawn) [Compound 3f, 2-Methoxy-N-(2-methyl-3-oxo-8-tert-pentyl-1-thia-4-azaspiro[4.5]decan-4-yl)-4-sulfamoylbenzamide] the EC50 [1, 6] was over 100000 nM, the melting point was 290 to 295 °C and the “Cytotoxicity MCC” value ([2]; dog) was over 100 µM. The EC50 [3, 7] was over 100000 nM, the EC50 [3, 8] was over 100000 nM and the EC50 [4, 9] was over 100000 nM. For the same molecule, the EC50 [4, 10] was over 100000 nM and the CC50 [5] was over 100 µM.
For `COc1cc(S(N)(=O)=O)ccc1C(=O)NN1C(=O)C(C)SC12CCC(C(F)(F)F)CC2` (stereo not drawn) [3 g, 2-Methoxy-N-(2-methyl-3-oxo-1-thia-8-trifluoromethyl-4-azaspiro[4.5]decan-4-yl)-4-sulfamoylbenzamide], the EC50 [1, 6] was over 100000 nM, the melting point was 210 to 214 °C and the “Cytotoxicity MCC” value ([2]; dog) was 100 µM. The EC50 [3, 7] was over 100000 nM, the EC50 [3, 8] was over 100000 nM and the EC50 [4, 9] was over 100000 nM. For the same molecule, the EC50 [4, 10] was over 100000 nM and the CC50 [5] was over 100 µM.
For `COc1cc(S(N)(=O)=O)ccc1C(=O)NN1C(=O)C(C)SC12CCC(C)CC2` (stereo not drawn) [Compound 3b, 2-Methoxy-N-(2,8-dimethyl-3-oxo-1-thia-4-azaspiro[4.5]decan-4-yl)-4-sulfamoylbenzamide], the EC50 [1, 6] was over 100000 nM, the melting point was 258 to 261 °C and the “Cytotoxicity MCC” value ([2]; dog) was over 100 µM. For the same molecule, the EC50 [3, 7] was over 100000 nM, the EC50 [3, 8] was over 100000 nM and the EC50 [4, 9] was over 100000 nM. The EC50 [4, 10] was over 100000 nM and the CC50 [5] was over 100 µM.
For `O=C1c2c(O)c(=O)ccn2N([C@@H]2c3ccccc3SCc3c2ccc(F)c3F)[C@@H]2COCCN12` [BXA, baloxavir acid, reference compound], the EC50 ([1]; microscopic scoring, BXA concentration unit nM) was 8.3 nM, the CC50 [2] was over 0.02 µM and the “Cytotoxicity MCC” value [2] was over 0.02 µM. It also gave an EC50 ([3]; MTS assay, BXA concentration unit nM, read-out: Antiviral EC50 Influenza A/H3N2 MTS) of 1.7 nM, an EC50 ([3]; microscopic scoring, BXA concentration unit nM, read-out: Antiviral EC50 Influenza A/H3N2 Microscopy) of 2 nM and an EC50 ([4]; MTS assay, BXA concentration unit nM, read-out: Antiviral EC50 Influenza A/H1N1 MTS) of 1.5 nM. For the same molecule, the EC50 ([4]; microscopic scoring, BXA concentration unit nM, read-out: Antiviral EC50 Influenza A/H1N1 Microscopy) was 1.8 nM.
With `COc1cc(S(N)(=O)=O)ccc1C(=O)NN1C(=O)C(C)SC12CCC(C#N)(c1ccccc1)CC2` (stereo not drawn) [Compound 3i, 2-Methoxy-N-(8-cyano-2-methyl-3-oxo-8-phenyl-1-thia-4-azaspiro[4.5]decan-4-yl)-4-sulfamoylbenzamide] the EC50 [1, 6] was over 100000 nM, the melting point was 265 to 270 °C and the “Cytotoxicity MCC” value ([2]; dog) was over 100 µM. For the same molecule, the EC50 [3, 7] was over 100000 nM, the EC50 [3, 8] was over 100000 nM and the EC50 [4, 9] was over 100000 nM. It also gave an EC50 [4, 10] of 74000 nM and a CC50 [5] of over 100 µM.
